Assay: Radiochemical purity of [^18F]FES stock solution during storage (radiolysis stability)
Assay type: physicochemical
Details: for Radio-chemical purity after 10 h storage: sodium ascorbate in purification and formulation (0.45% m/v)
Method: Radiochemical purity is the ratio of the radioactivity of the radionuclide agent under chemical form on the total radioactivity of this same radionuclide. Radiochemical purity of the [^18F]FES stock solution is measured. […]

Radio-chemical purity (Example 2: sodium ascorbate during purification only, none in final solution, 250 GBq 18-Fluorine, time of storage 0 hours (end of synthesis)): 99.3% | Radio-chemical purity (Example 2: sodium ascorbate during purification only, none in final solution, 250 GBq 18-Fluorine, time of storage 4 hours): 95% | Radio-chemical purity (Example 2: sodium ascorbate during purification only, none in final solution, 250 GBq 18-Fluorine, time of storage 8 hours): 93% | Radio-chemical purity (Example 2: sodium ascorbate during purification only, none in final solution, 250 GBq 18-Fluorine, time of storage 10 hours): 92% | Radio-chemical purity after 10 h storage (Example 3, batch number 1, 79 GBq 18-Fluorine): 98.0% | Radio-chemical purity after 10 h storage (Example 3, batch number 2, 99 GBq 18-Fluorine): 99.0% | Radio-chemical purity after 10 h storage (Example 3, batch number 3, 164 GBq 18-Fluorine): 96.7% | Radio-chemical purity after 10 h storage (Example 3, batch number 4, 195 GBq 18-Fluorine): 97.1% | Radio-chemical purity (Example 4: synthesis in the presence of sodium ascorbate, 164 GBq 18-Fluorine, time of storage 0 hours (end of synthesis)): 98.0% | Radio-chemical purity (Example 4: synthesis in the presence of sodium ascorbate, 164 GBq 18-Fluorine, time of storage 5 hours): 96.8% | Radio-chemical purity (Example 4: synthesis in the presence of sodium ascorbate, 164 GBq 18-Fluorine, time of storage 10 hours): 96.7% | Decrease of radiochemical purity after 10 hours of storage (synthesized in the presence of sodium ascorbate (Example 4, Table 4)): 1.3% | Decrease of radiochemical purity after 10 hours of storage (synthesized without antioxidant (Example 2, Table 2)): 7.3%
Compound: C[C@]12CC[C@@H]3c4ccc(O)cc4CC[C@H]3C1C[C@@H]([18F])[C@@H]2O (stereo partly drawn) [[^18F]FES, 16α-[^18F]fluoro-17β-estradiol]

From US10695450B2, “Synthesis of a radioactive agent composition” (LABORATOIRES CYCLOPHARMA, priority 2016, dated 2020)
